This note sets out measurements from publication PMC8037530, “Synthesis and Hybrid SAR Property Modeling of Novel Cholinesterase Inhibitors” (International Journal of Molecular Sciences, 2021).

Where two headings read alike, the source gives them in different places.

The nature of data set [1]: Determination of lipophilicity by RP-HPLC (capacity factor k). Format: physicochemical. Particulars: C18, isocratic MeOH 72%/H2O 28%, 40 °C. As to the method: The lipophilicity of all the target compounds was investigated by means of RP-HPLC determination of capacity factors k with a subsequent calculation of log k. The retention times of individual compounds were determined under isocratic conditions with methanol as an organic modifier in the mobile phase using end-capped non-polar C18 stationary RP columns.
The HPLC separation system Agilent 1200 series equipped with a DAD SL (Agilent Technologies) was used. A chromatographic column Symmetry® C18 5 μm, 4.6 × 250 mm, Part No. W21751W016 (Waters Corp., Milford, MA, USA) was applied. The HPLC separation process was monitored by the ChemStation for LC 3D chromatography software (Agilent Technologies). Isocratic elution by a mixture of MeOH p.a. (72%) and H2O-HPLC Mili-Q grade (28%) as a mobile phase was used for the determination of the capacity factor k. The total flow of the column was 1.0 mL/min, injection 20 μL, column temperature 40 °C, and sample temperature 10 °C. The detection wavelength of 210 nm was chosen. A KI methanolic solution was used for the determination of the dead times (tD). Retention times (tR) were measured in minutes. The capacity factors k were calculated according to the formula k = (tR − tD)/tD, where tR is the retention time of the solute and tD is the dead time obtained using an unretained analyte. Each experiment was repeated three times.

Another data set has as its target T1, BChE from equine serum (Equus caballus, UniProt P81908).
T1 construct: BChE from equine serum; purchased Sigma, St. Louis, MO, USA; host or cells: equine serum
The data set can be described thus: In vitro BChE inhibition, modified Ellman's method. Format: biochemical. Particulars: for SI (index selectivity) = IC50 (AChE)/IC50 (BChE): ratio IC50 AChE/IC50 BChE. As to the method:
(§1) The ability of all the prepared compounds to inhibit AChE from electric eel (Electrophorus electricus) and BChE from equine serum (both purchased from Sigma, St. Louis, MO, USA) was determined in vitro using a modified Ellman’s method, as described in detail elsewhere. This is a simple, rapid, and direct method to determine the SH and -S-S- group content in proteins. The enzyme activity is measured indirectly by quantifying the concentration of the 5-thio-2-nitrobenzoic acid ion formed in the reaction between the thiol reagent 5,5’-dithiobis-2nitrobenzoic acid (DTNB) and thiocholine, which is a product of acetylthiocholine hydrolysis catalyzed by cholinesterases. The effectiveness of the tested inhibitors is expressed as the IC50 values.
(§2) The enzyme activity in the final reaction mixture (2 mL) was 0.2 U/mL, the concentration of the substrate (acetylthiocholine or butyrythiocholine) was 40 µM, and the concentration of DTNB was 0.1 mM for all reactions. All reactions were carried out at 25 °C in the presence of phosphate-buffered saline (0.1 M, pH 7.4) in a glass cuvette with a 1 cm optical path. All the studied inhibitors were dissolved in DMSO (concentration 0.01 M) and then diluted in demineralized water as necessary. […] All measurements were carried out in triplicate, and the average values of the reaction rate (v0—reaction in the absence of the inhibitor, vi—reaction in the presence of the inhibitor) were used for construction of the dependence v0/vi vs. concentration of the inhibitor.
In general terms: DTNB colorimetry detects thiols as they appear.

In data set [2] the target is T2, AChE from electric eel (Electrophorus electricus) (Electrophorus electricus, UniProt O42275).
T2 construct: purchased Sigma, St. Louis, MO, USA
T2 sequence (O42275 24-633): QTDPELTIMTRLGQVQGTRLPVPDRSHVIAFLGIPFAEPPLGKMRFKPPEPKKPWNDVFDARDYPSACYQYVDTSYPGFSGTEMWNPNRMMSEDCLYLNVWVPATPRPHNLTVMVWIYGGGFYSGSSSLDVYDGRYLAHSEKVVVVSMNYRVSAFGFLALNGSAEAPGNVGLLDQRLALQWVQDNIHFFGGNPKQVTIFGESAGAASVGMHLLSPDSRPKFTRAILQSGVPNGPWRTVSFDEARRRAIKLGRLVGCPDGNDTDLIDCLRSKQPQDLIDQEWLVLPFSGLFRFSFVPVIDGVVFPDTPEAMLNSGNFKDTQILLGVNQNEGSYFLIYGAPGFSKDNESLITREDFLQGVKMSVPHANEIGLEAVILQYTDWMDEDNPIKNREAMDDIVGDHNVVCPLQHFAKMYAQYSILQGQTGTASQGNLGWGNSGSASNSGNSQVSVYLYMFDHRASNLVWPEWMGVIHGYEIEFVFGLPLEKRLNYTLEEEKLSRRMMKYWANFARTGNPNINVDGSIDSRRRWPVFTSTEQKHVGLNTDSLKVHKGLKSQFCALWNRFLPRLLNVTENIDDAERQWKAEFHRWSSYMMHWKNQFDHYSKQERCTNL
The data set can be described thus: In vitro AChE inhibition, modified Ellman's method. It is filed as biochemical. How it is done: as §1, §2

T1 sequence (P81908 whole entry): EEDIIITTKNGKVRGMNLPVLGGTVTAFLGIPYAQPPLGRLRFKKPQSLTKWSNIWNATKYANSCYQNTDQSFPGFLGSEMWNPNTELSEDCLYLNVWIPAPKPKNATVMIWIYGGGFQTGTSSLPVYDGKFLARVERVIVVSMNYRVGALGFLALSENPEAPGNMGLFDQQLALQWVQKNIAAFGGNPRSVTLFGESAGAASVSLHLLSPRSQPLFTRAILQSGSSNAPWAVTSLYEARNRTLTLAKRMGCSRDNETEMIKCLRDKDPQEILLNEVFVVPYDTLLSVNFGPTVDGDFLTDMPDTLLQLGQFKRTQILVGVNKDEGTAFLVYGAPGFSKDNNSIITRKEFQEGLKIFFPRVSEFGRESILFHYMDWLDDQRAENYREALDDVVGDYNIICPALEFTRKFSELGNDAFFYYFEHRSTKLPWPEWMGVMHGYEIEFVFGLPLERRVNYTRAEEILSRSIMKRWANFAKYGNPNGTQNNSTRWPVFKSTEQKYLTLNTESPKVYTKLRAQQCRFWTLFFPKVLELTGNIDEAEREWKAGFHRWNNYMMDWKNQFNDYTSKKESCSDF

`O=C(Nc1ccc(C(=O)Nc2cccc(Cl)c2)c(O)c1)OCc1ccccc1` [Compound 10, Benzyl{4-[(3-chlorophenyl)carbamoyl]-3-hydroxyphenyl}carbamate]: in data set [1], the log k stood at 0.6411. Moreover, at BChE from equine serum, the midpoint of inhibition, the IC50, lay at 204 ± 7.49 µM and the “SI (index selectivity) = IC50 (AChE)/IC50 (BChE)” value (shortened to “SI (index selectivity) = IC50”) turned out to be 0.30. Further, the IC50 in data set [2] turned out to be 61.6 ± 1.74 µM.

In turn, `O=C(Nc1ccc(C(=O)Nc2ccc(F)cc2F)c(O)c1)OCc1ccccc1` [Compound 17, Benzyl{4-[(2,4-difluorophenyl)carbamoyl]-3-hydroxyphenyl}carbamate] had a log k in data set [1] of 0.1912. Also, on BChE from equine serum, the IC50 came to 180 ± 7.04 µM and the “SI (index selectivity) = IC50” value is 0.44. The midpoint of inhibition in data set [2], the IC50, lay at 79.2 ± 1.27 µM.

Turning to `O=C(Nc1ccc(C(=O)Nc2ccccc2OC(F)(F)F)c(O)c1)OCc1ccccc1` [Compound 15, Benzyl(3-hydroxy-4-{[2-(trifluoromethoxy)phenyl]carbamoyl}phenyl)carbamate], in data set [1], the log k worked out at 0.6227. In addition, on BChE from equine serum, half-maximal inhibition (IC50) required 44.3 ± 0.87 µM and the “SI (index selectivity) = IC50” value came to 0.81. The IC50 in data set [2] stood at 36 ± 1.48 µM.

Consider `O=C(Nc1ccc(C(=O)Nc2ccc(F)cc2)c(O)c1)OCc1ccccc1` [Compound 8, Benzyl{4-[(4-fluorophenyl)carbamoyl]-3-hydroxyphenyl}carbamate], for which the log k in data set [1] stood at 0.3924. The figures for the IC50 (on BChE from equine serum; in data set [2]) were 105.8 ± 0.43 µM and 47.4 ± 0.61 µM, respectively. Further, at BChE from equine serum, the “SI (index selectivity) = IC50” value is reported as 0.45.

Take `O=C(Nc1ccc(C(=O)Nc2c(Cl)cccc2Cl)c(O)c1)OCc1ccccc1` [Compound 23, Benzyl{4-[(2,6-dichlorophenyl)carbamoyl]-3-hydroxyphenyl}carbamate]: the log k in data set [1] was found to be 0.8125. In addition, the IC50 against BChE from equine serum came out at 117.6 ± 1.11 µM; in data set [2] it was 76.74 ± 0.74 µM. Moreover, the “SI (index selectivity) = IC50” value at BChE from equine serum was 0.65.

On to `Cc1cccc(NC(=O)c2ccc(NC(=O)OCc3ccccc3)cc2O)c1` [Compound 5, Benzyl{3-hydroxy-4-[(3-methylphenyl)carbamoyl]phenyl}carbamate], for which, in data set [1], the log k was 0.2725. On BChE from equine serum, it took 167 ± 10.2 µM to reach half-maximal inhibition (IC50) and the “SI (index selectivity) = IC50” value is reported as 0.42. Moreover, in data set [2], the IC50 amounted to 70.2 ± 1.7 µM.

The compound `O=C(Nc1ccc(C(=O)Nc2cccc(C(F)(F)F)c2)c(O)c1)OCc1ccccc1` [Compound 13, Benzyl(3-hydroxy-4-{[3-(trifluoromethyl)phenyl]carbamoyl}phenyl)carbamate] returned a log k in data set [1] of 0.4477. Further, at BChE from equine serum, inhibition was half-maximal at 309 ± 8.06 µM (IC50) and the “SI (index selectivity) = IC50” value is 0.23. The IC50 in data set [2] is 70.67 ± 0.57 µM.

Take `O=C(Nc1ccc(C(=O)Nc2ccccc2C(F)(F)F)c(O)c1)OCc1ccccc1` [Compound 12, Benzyl(3-hydroxy-4-{[2-(trifluoromethyl)phenyl]carbamoyl}phenyl)carbamate]: in data set [1], the log k amounted to 0.4318. Moreover, the IC50 at BChE from equine serum turned out to be 33.6 ± 0.71 µM; in data set [2], 56.4 ± 1.26 µM. The “SI (index selectivity) = IC50” value at BChE from equine serum came to 1.68.

Compound `O=C(Nc1ccc(C(=O)Nc2c(F)cccc2F)c(O)c1)OCc1ccccc1` [Compound 19, Benzyl{4-[(2,6-difluorophenyl)carbamoyl]-3-hydroxyphenyl}carbamate] had a log k in data set [1] of -0.1205. The values for the IC50 (on BChE from equine serum; in data set [2]) were 42.9 ± 2.13 µM and 64.3 ± 4.74 µM, respectively. The “SI (index selectivity) = IC50” value on BChE from equine serum was 1.50.

`O=C(Nc1ccc(C(=O)Nc2ccccc2)c(O)c1)OCc1ccccc1` [Compound 1, Benzyl[3-hydroxy-4-(phenylcarbamoyl)phenyl]carbamate] registered a log k in data set [1] of 0.1160. Also, the IC50 came to 175 ± 5.85 µM against BChE from equine serum and 65.2 ± 2.24 µM in data set [2]. For the same compound, the “SI (index selectivity) = IC50” value at BChE from equine serum was 0.37.

For `COc1ccc(NC(=O)c2ccc(NC(=O)OCc3ccccc3)cc2O)cc1` [Compound 4, Benzyl{3-hydroxy-4-[(4-methoxyphenyl)carbamoyl]phenyl}carbamate], the log k in data set [1] is given as 0.1176. Moreover, the IC50 against BChE from equine serum is 154 ± 6.09 µM; in data set [2], 57.49 ± 0.08 µM. Also, at BChE from equine serum, the “SI (index selectivity) = IC50” value is recorded as 0.37.

On to `COc1cccc(NC(=O)c2ccc(NC(=O)OCc3ccccc3)cc2O)c1` [Compound 3, Benzyl{3-hydroxy-4-[(3-methoxyphenyl)carbamoyl]phenyl}carbamate], for which the log k in data set [1] is given as 0.1280. Further, at BChE from equine serum, the IC50 turned out to be 362 ± 8.12 µM and the “SI (index selectivity) = IC50” value amounted to 0.19. Besides, the IC50 in data set [2] came to 69.3 ± 2 µM.

For `O=C(Nc1ccc(C(=O)Nc2ccccc2OC(F)(F)F)c(O)c1)OCc1ccccc1`, the IC50 in data set [2] (mean ± SD, n = 3, electric eel AChE, 25 °C, pH 7.4, read-out: IC50 AChE) was found to be 36.1 µM.

As for `O=C(Nc1ccc(C(=O)Nc2cc(F)cc(F)c2)c(O)c1)OCc1ccccc1` [Compound 20, Benzyl{4-[(3,5-difluorophenyl)carbamoyl]-3-hydroxyphenyl}carbamate], in data set [1], the log k turned out to be 0.4072. On BChE from equine serum, the IC50 was found to be 208 ± 5.3 µM and the “SI (index selectivity) = IC50” value came to 0.32. The same compound gave an IC50 in data set [2] of 67.4 ± 5.24 µM.

In data set [1], `O=C(Nc1ccc(C(=O)Nc2ccc(Cl)cc2)c(O)c1)OCc1ccccc1` [Compound 11, Benzyl{4-[(4-chlorophenyl)carbamoyl]-3-hydroxyphenyl}carbamate] gave a log k of 0.6399. In addition, the IC50 is 139 ± 6.86 µM at BChE from equine serum and 78.2 ± 1.58 µM in data set [2]. In addition, the “SI (index selectivity) = IC50” value at BChE from equine serum turned out to be 0.56.

In data set [1], `O=C(Nc1ccc(C(=O)Nc2cc(Cl)ccc2Cl)c(O)c1)OCc1ccccc1` [Compound 22, Benzyl{4-[(2,5-dichlorophenyl)carbamoyl]-3-hydroxyphenyl}carbamate] returned a log k of 0.6138. The IC50 on BChE from equine serum stood at 141 ± 7.12 µM; in data set [2], 99.14 ± 0.2 µM. In addition, the “SI (index selectivity) = IC50” value on BChE from equine serum was found to be 0.70.

As to `O=C(Nc1ccc(C(=O)Nc2c(Br)cc(Br)cc2Br)c(O)c1)OCc1ccccc1` [Compound 32, Benzyl{3-hydroxy-4-[(2,4,6-tribromophenyl)carbamoyl]phenyl}carbamate], in data set [1], the log k was 0.4427. Besides, at BChE from equine serum, it took 56 ± 0.58 µM to reach half-maximal inhibition (IC50) and the “SI (index selectivity) = IC50” value is recorded as 1.18. This compound also yielded an IC50 in data set [2] of 65.9 ± 2.81 µM.

The compound `O=C(Nc1ccc(C(=O)Nc2ccc(Br)cc2Br)c(O)c1)OCc1ccccc1` [Compound 26, Benzyl{4-[(2,4-dibromophenyl)carbamoyl]-3-hydroxyphenyl}carbamate] showed a log k in data set [1] of 0.7366. Besides, at BChE from equine serum, the 50% inhibitory concentration (IC50) amounted to 262 ± 5.1 µM and the “SI (index selectivity) = IC50” value turned out to be 0.36. In data set [2], this compound registered a concentration for half-maximal inhibition (IC50) of 94.9 ± 0.97 µM.

As to `O=C(Nc1ccc(C(=O)Nc2cccc(F)c2)c(O)c1)OCc1ccccc1` [Compound 7, Benzyl{4-[(3-fluorophenyl)carbamoyl]-3-hydroxyphenyl}carbamate], in data set [1], the log k is 0.2303. On BChE from equine serum, half-maximal inhibition (IC50) was put at 197.6 ± 1.36 µM and the “SI (index selectivity) = IC50” value was found to be 0.34. For the same compound, in data set [2], the IC50 was determined as 66.6 ± 0.14 µM.

In turn, `O=C(Nc1ccc(C(=O)Nc2cccc(Cl)c2Cl)c(O)c1)OCc1ccccc1` [Compound 21, Benzyl{4-[(2,3-dichlorophenyl)carbamoyl]-3-hydroxyphenyl}carbamate] registered a log k in data set [1] of 0.5497. At BChE from equine serum, half-maximal inhibition (IC50) required 248 ± 14.9 µM and the “SI (index selectivity) = IC50” value is 0.36. The compound further registered an IC50 in data set [2] of 88.8 ± 1.42 µM.

Turning to `O=C(Nc1ccc(C(=O)Nc2ccc(C(F)(F)F)cc2)c(O)c1)OCc1ccccc1` [Compound 14, Benzyl(3-hydroxy-4-{[4-(trifluoromethyl)phenyl]carbamoyl}phenyl)carbamate], in data set [1], the log k is reported as 0.7408. At BChE from equine serum, the IC50 amounted to 137 ± 21.9 µM and the “SI (index selectivity) = IC50” value is recorded as 0.52. In data set [2], this compound came in with an IC50 of 71.4 ± 5.04 µM.

As for `O=C(Nc1ccc(C(=O)O)c(O)c1)OCc1ccccc1` [CbzPAS, 4-{[(Benzyloxy)carbonyl]amino}-2-hydroxybenzoic acid, reference compound], on BChE from equine serum, the IC50 was found to be 137 ± 21.8 µM and the “SI (index selectivity) = IC50” value was 0.42. Further, the 50% inhibitory concentration (IC50) in data set [2] came out at 58.1 ± 1.04 µM.

By IC50 is commonly meant the point on the concentration scale where inhibition reaches its midpoint.
